Like-named read-outs stand apart in the source and are kept apart here.
Experiments:
[1] = Phase I toxicity of IP topotecan (WHO grading)
[2] = system: ovarian cancer; set-up: method as in earlier work; conditions: patients who failed platinum based chemotherapy; ref Neijt et al, 1991; Kudelka et al, 1996; Ten Bokkel Huinink et al, 1997; cited from earlier work
[3] = clinical; conditions: female, human, in vivo, ip
[4] = in vivo
[5] = cited from earlier work
[6] = female, human, in vivo
[7] = cited from earlier work; remark: listed apart in the source
[8] = human, in vivo, ip; for MRT / T1/2: female
[9] = system: recurrent ovarian cancer; assay: Tumour responses to IP topotecan; assay type: in vivo, human
[10] = in vitro, 1994, cited from earlier work
[11] = system: DNA topoisomerase I; set-up: method as in Kingsbury et al, 1991; conditions: in vitro; ref Kingsbury et al, 1991; cited from earlier work
[12] = system: human tumor colony forming units; set-up: method as in Burris et al, 1992; conditions: in vitro; ref Burris et al, 1992; cited from earlier work
[13] = clinical; conditions: female, human, in vivo, ip, 20 mg/m2, Cmax
[14] = set-up: method as in Rowinsky et al, 1992; Verweij et al, 1993; Herben et al, 1996; conditions: ref Rowinsky et al, 1992, Verweij et al, 1993, Herben et al, 1996, cited from earlier work

Structure (SMILES): CC[C@@]1(O)C(=O)OCc2c1cc1n(c2=O)Cc2cc3c(CN(C)C)c(O)ccc3nc2-1 [topotecan, Topotecan]
- Maximum tolerated dose (MTD) [1]: 20 mg/m2
- Duration of response [2]: 22-32 weeks
- AUC ([3]; 5 mg/m2, AUC): 81 ng·h/mL
- MRT ([3]; 5 mg/m2, MRT): 7 h
- half-life ([3]; 5 mg/m2, T1/2): 4.6 h
- AUC ([3]; 10 mg/m2, AUC): 107 ng·h/mL
- Cmax ([3]; 10 mg/m2, Cmax): 14 ng/mL
- MRT ([3]; 10 mg/m2, MRT): 6.5 h
- half-life ([3]; 10 mg/m2, T1/2): 3.9 h
- Tmax ([3]; 10 mg/m2, Tmax): 1.7 h
- Tmax ([3]; 15 mg/m2, Tmax): 1.6 h
- MRT ([3]; 20 mg/m2, MRT): 8.1 h
- half-life ([3]; 20 mg/m2, T1/2): 4.4 h
- Tmax ([3]; 20 mg/m2, Tmax): 3 h
- Cmax ([3]; 30 mg/m2, Cmax): 145 ng/mL
- Tmax ([3]; 30 mg/m2, Tmax): 1.8 h
- half-life ([3]; T1/2): 5.2 h
- half-life ([3]; T1/2 of lactone in this study (discussion)): 5.5 h
- Tmax ([3]; Tmax (time to peak plasma level after start of IP administration)): 2.1 h
- Patients with nausea and/or vomiting grade I-II ([4]; female, human): 12 patients
- Platelets toxicity Grade III, worst haematologic toxicity (number) ([4]; female, human, 74 cycles): 2
- Platelets toxicity Grade IV, worst haematologic toxicity (number) ([4]; female, human, 74 cycles): 0
- WBC toxicity Grade III, worst haematologic toxicity (number) ([4]; female, human, 74 cycles): 5
- WBC toxicity Grade IV, worst haematologic toxicity (number) ([4]; female, human, 74 cycles): 1
- Duration of myelosuppression ([4]; female, human, ip): < 7 days
- Recommended dose for further phase II trials ([4]; female, human, ip): 20 mg/m2
- Bleeding episodes [4]: No bleeding episodes
- Patients with abdominal pain grade I [4]: six
- Patients with nausea and vomiting grade III [4]: three
- Dose limiting toxicity (DLT) ([4]; ip): acute hypotension, chills and fever
- Patients with generalized transient skin rash ([4]; ip): four
- Recommended dosage ([5]; continuous 24-h IP infusion, ref Plaxe et al, 1998): 3 mg/m2
- Dose limiting toxicity in most studies ([5]; ref Abbruzzese et al, 1993, Kantarjian et al, Rowinsky et al, 1994, Van Warmerdam et al, 1995, Hochster et al): neutropenia
- Tmax (time to peak plasma level after start of IP administration) [6]: 2.7 ± 1.1 h
- Dose level from which plasma concentrations required for cytotoxicity in vitro were reached ([6]; ip): ≥ 15 mg/m2
- T1/2 ([6]; ip): 3.7 ± 1.3 h
- MRT ([6]; ip, 20 mg/m2): 6.9 h
- Vss for lactone ([7]; IV administration, ref Herben et al): 94 L/m2
- Terminal T1/2 for peritoneal topotecan ([7]; continuous IP infusion, ref Plaxe et al, 1998): 2.7 h
- MRT ([8]; 10 mg/m2): 2.6 h
- T1/2 ([8]; 10 mg/m2): 1.8 h
- MRT ([8]; 30 mg/m2): 3.4 h
- T1/2 ([8]; 30 mg/m2): 2.3 h
- CL [8]: 0.8 L/h/m2
- Partial responses (> 50% decrease in repeated CA125 levels) ([9]; biochemically evaluable patients): 6 of 13
- Stable disease for 6-8 cycles ([9]; clinically evaluable patients): 5 of 8
- Complete clinical responses ([9]; pretreated patients, IP 5-30 mg/m2): no complete clinical responses
- Patients with progressive disease ([9]; three by marker and three by clinical parameters): six
- Cytotoxic concentrations ([10]; ref Pizao et al): 13.7 to 229 µg/L
- Cytotoxic concentration ([10]; ref Tanizawa et al): 128 µg/L
- Inhibition of DNA topoisomerase I [11]: potent inhibitor
- Threshold concentration for cytotoxic activity, continuous exposure [12]: 100 µg/L
- Cmax [13]: 12100 ng/mL
- Form at equilibrium ([14]; pH 7.4): open-ring form predominates
- Stability in infusion fluids ([14]; pH < 4.0): stable
- Stability in plasma ([14]; plasma): unstable

Reference: paper PMC2363984 (British Journal of Cancer, 2001)
